≈ marks a conversion by molar mass, not a printed value. Where only a bound is given, the exact number is not on record here.

Assay [1] has as its system M. smegmatis ΔrrnB (bacterial ribosomes). Description: MIC, recombinant M. smegmatis with bacterial (wild-type) ribosomes. In kind it is cell-based, Mycobacterium smegmatis. Conditions: 72 h at 37° C. The gist of the method: (§1)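 M. smegmatis single-rRNA-operon strain carrying the indicated 16S rRNA decoding-site alleles, introduced into the chromosomal operon and confirmed by sequencing. Colony-purified cultures were grown in LB with 0.05% Tween 80 and started at OD600 0.025. MIC was read in microtiter format against twofold drug dilutions.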

The subject of assay [2] is M. smegmatis ΔrrnB 1408G (16S rRNA position 1408 G, eukaryotic cytosolic ribosomes). Description: MIC, recombinant M. smegmatis with mutant ribosomes 1408G. In kind it is cell-based, Mycobacterium smegmatis. As to conditions: M. smegmatis ΔrrnB 1408G mutant ribosomes; 72 h at 37° C. The method in brief: as §1
Assay [3] has as its system M. smegmatis ΔrrnB 1491A (16S rRNA position 1491 A, eukaryotic cytosolic ribosomes). The assay is described as follows: MIC, recombinant M. smegmatis with mutant ribosomes 1491A. In kind it is cell-based, Mycobacterium smegmatis. Conditions: M. smegmatis ΔrrnB 1491A mutant ribosomes; 72 h at 37° C. The gist of the method: as §1
For assay [4], the system named is M. smegmatis ΔrrnB 1491C (16S rRNA position 1491 C, eukaryotic mitochondrial ribosome). Description: MIC, recombinant M. smegmatis with mutant ribosomes 1491C. Type of assay: cell-based, Mycobacterium smegmatis. As to conditions: M. smegmatis ΔrrnB 1491C mutant ribosomes; 72 h at 37° C. The gist of the method: as §1
The subject of assay [5] is AG011 Staph. aureus clinical isolate. The assay is described as follows: Standard MIC assay, AG011. Type of assay: cell-based, Staphylococcus aureus. The method in brief:
(§2)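 Compounds were tested in standard MIC assays. The value reported is the minimal concentration that inhibited bacterial growth in vitro.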

In assay [6] the test system is AG013 Staph. epi. clinical isolate. Description: Standard MIC assay, AG013. In kind it is cell-based, Staphylococcus epidermidis. The gist of the method:
as §2

In assay [7] the test system is AG014 Staph. epi. clinical isolate. The assay is described as follows: Standard MIC assay, AG014. Type of assay: cell-based, Staphylococcus epidermidis. The gist of the method:
as §2

A further assay concerns AG016 S. aureus BM3002. The assay is described as follows: Standard MIC assay, AG016. Type of assay: cell-based, Staphylococcus aureus. The gist of the method: as §2
The subject of assay [8] is AG015 S. aureus BM3002 (ANT4′). Description: Standard MIC assay, AG015. Type of assay: cell-based, Staphylococcus aureus. The gist of the method: as §2
A further assay relates to AG017 E. faecalis JH2-2. The assay is described as follows: Standard MIC assay, AG017. Type of assay: cell-based, Enterococcus faecalis. The method in brief: as §2
Assay [9] concerns AG019 E. faecalis JH2-2 (APH2″ AAC6′). The assay is described as follows: Standard MIC assay, AG019. Type of assay: cell-based, Enterococcus faecalis. The method in brief:
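Standard in vitro susceptibility test; MIC taken as the least drug concentration at which bacterial growth is inhibited.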

Assay [10] has as its system AG001 E. coli clinical isolate. Description: Standard MIC assay, AG001. In kind it is cell-based, Escherichia coli. Here is the method: (§3) Selected compounds of the present invention were tested for antibiotic susceptibility using clinical isolates of Staphylococci, Enterococci and Escherichia coli as well as strains carrying defined resistance determinants and compared to well known antibiotics of the state of the art. Drug susceptibility was determined in standard MIC assays, i.e. by determination of the minimal drug concentration required to inhibit bacterial growth in vitro.

In assay [11] the test system is AG002 E. coli clinical isolate. Description: Standard MIC assay, AG002. Type of assay: cell-based, Escherichia coli. On the procedure: as §3
Assay [12] concerns AG003 E. coli clinical isolate. The assay is described as follows: Standard MIC assay, AG003. Type of assay: cell-based, Escherichia coli. Here is the method: as §3
In assay [13] the test system is AG004 E. coli clinical isolate. Description: Standard MIC assay, AG004. Type of assay: cell-based, Escherichia coli. Here is the method:
as §3

A further assay concerns AG006 E. coli BM13. Description: Standard MIC assay, AG006. Type of assay: cell-based, Escherichia coli. Here is the method:
as §3

Assay [14] relates to AG007 E. coli BM13 (AAC3). The assay is described as follows: Standard MIC assay, AG007. In kind it is cell-based, Escherichia coli. On the procedure: as §3
In assay [15] the test system is AG008 E. coli BM13 (ANT2″). Description: Standard MIC assay, AG008. In kind it is cell-based, Escherichia coli. On the procedure:
as §3

Assay [16] has as its system AG009 E. coli BM13 AAC(6′)-1B. Description: Standard MIC assay, AG009. Type of assay: cell-based, Escherichia coli. Here is the method:
as §3

In the case of `NCC1OC(OC2C(CO)OC(OC3C(O)C(N)CC(N)C3OC3OC(CO)C(OCc4ccccc4)C(O)C3N)C2O)C(N)C(O)C1O` (centres unmarked) [Compound 11, 4′-O-Benzylparomomycin], the “minimal inhibitory concentrations ΔrrnB” value in assay [1] was found to be 4 µg/mL. For the same compound, the “minimal inhibitory concentrations ΔrrnB 1408G” value in assay [2] was over 512 µg/mL. For the same compound, the “minimal inhibitory concentrations ΔrrnB 1491A” value in assay [3] is reported as “≧512 μg/ml”. In [4], the “minimal inhibitory concentrations ΔrrnB 1491C” value was over 512 µg/mL. Also, the MIC was 8 µg/mL (≈ 11.3 µM) in [5] (Staphylococcus aureus, read-out: Minimal inhibitory concentrations AG011); 16 µg/mL (≈ 22.7 µM) in [6] (Staphylococcus epidermidis, read-out: Minimal inhibitory concentrations AG013); 8 µg/mL (≈ 11.3 µM) in assay [7] (Staphylococcus epidermidis, read-out: Minimal inhibitory concentrations AG014); 16 to 32 µg/mL (≈ 22.7 to 45.3 µM) in the assay with AG016 S. aureus BM3002 (Staphylococcus aureus, read-out: Minimal inhibitory concentrations AG016); 32 µg/mL (≈ 45.3 µM) in assay [8] (Staphylococcus aureus, read-out: Minimal inhibitory concentrations AG015); 32 to 64 µg/mL (≈ 45.3 to 90.7 µM) with AG017 E. faecalis JH2-2 (Enterococcus faecalis, read-out: Minimal inhibitory concentrations AG017). Further, the MIC in assay [9] (Enterococcus faecalis, read-out: Minimal inhibitory concentrations AG019) was over 256 µg/mL; in assay [10] (Escherichia coli, read-out: Minimal inhibitory concentrations AG001), 64 µg/mL (≈ 90.7 µM); in [11] (Escherichia coli, read-out: Minimal inhibitory concentrations AG002), 32 to 64 µg/mL (≈ 45.3 to 90.7 µM); in assay [12] (Escherichia coli, read-out: Minimal inhibitory concentrations AG003), 32 to 64 µg/mL (≈ 45.3 to 90.7 µM); in assay [13] (Escherichia coli, read-out: Minimal inhibitory concentrations AG004), 64 µg/mL (≈ 90.7 µM); in the assay on AG006 E. coli BM13 (Escherichia coli, read-out: Minimal inhibitory concentrations AG006), 32 µg/mL (≈ 45.3 µM). Further, the MIC in assay [14] (Escherichia coli, read-out: Minimal inhibitory concentrations AG007) was 32 µg/mL (≈ 45.3 µM); in assay [15] (Escherichia coli, read-out: Minimal inhibitory concentrations AG008) it was 64 to 128 µg/mL (≈ 90.7 to 181 µM); in [16] (Escherichia coli, read-out: Minimal inhibitory concentrations AG009), 64 to 128 µg/mL (≈ 90.7 to 181 µM).
`NC[C@@H]1O[C@H](O[C@H]2[C@@H](O)[C@H](O[C@@H]3[C@@H](O)[C@H](N)C[C@H](N)[C@H]3O[C@H]3O[C@H](CO)[C@@H](OCc4ccc(Cl)cc4)[C@H](O)[C@H]3N)O[C@@H]2CO)[C@H](N)[C@@H](O)[C@@H]1O` [Compound 19a, 4′-p-chlorobenzylparomomycin]: the “minimal inhibitory concentrations ΔrrnB” value in assay [1] worked out at 2 µg/mL. Further, the “minimal inhibitory concentrations ΔrrnB 1408G” value in [2] is “≧512 μg/ml”. Besides, the “minimal inhibitory concentrations ΔrrnB 1491A” value in [3] is “≧512 μg/ml”. For the same compound, the “minimal inhibitory concentrations ΔrrnB 1491C” value in assay [4] is over 512 µg/mL. Besides, the “Minimal inhibitory concentrations AG011” value in [5] was determined as 2 µg/mL (≈ 2.7 µM). For the same compound, in assay [6], the “Minimal inhibitory concentrations AG013” value was 4 µg/mL (≈ 5.4 µM). Besides, the “Minimal inhibitory concentrations AG014” value in assay [7] amounted to 2 µg/mL (≈ 2.7 µM). Moreover, in the assay with AG016 S. aureus BM3002, the “Minimal inhibitory concentrations AG016” value is 4 µg/mL (≈ 5.4 µM). Besides, the “Minimal inhibitory concentrations AG015” value in assay [8] (S. aureus BM3002 (ANT4′)) fell in the range of 8 to 16 µg/mL. Besides, in the assay on AG017 E. faecalis JH2-2, the “Minimal inhibitory concentrations AG017” value lay in the range of 8 to 16 µg/mL. Moreover, in assay [9] (E. faecalis JH2-2 (APH2″ AAC6′)), the “Minimal inhibitory concentrations AG019” value is 32 to 64 µg/mL. Also, the “Minimal inhibitory concentrations AG001” value in [10] lay in the range of 8 to 16 µg/mL. The “Minimal inhibitory concentrations AG002” value in [11] amounted to 16 µg/mL (≈ 21.6 µM). The “Minimal inhibitory concentrations AG003” value in assay [12] lay within 8 to 16 µg/mL. Also, the “Minimal inhibitory concentrations AG004” value in assay [13] is 8 to 16 µg/mL. Moreover, in the assay with AG006 E. coli BM13, the “Minimal inhibitory concentrations AG006” value lay in the range of 8 to 16 µg/mL. Also, the “Minimal inhibitory concentrations AG007” value in assay [14] (E. coli BM13 (AAC3)) was in the range of 8 to 16 µg/mL. The “Minimal inhibitory concentrations AG008” value in assay [15] (E. coli BM13 (ANT2″)) was 8 to 16 µg/mL. Besides, in [16] (E. coli BM13 AAC(6′)-1B), the “Minimal inhibitory concentrations AG009” value was 32 µg/mL (≈ 43.2 µM).

Source of the values: patent publication US8546343B2, “Aminoglycoside antibiotics targeting bacterial 16S ribosomal RNA” (Eidgenoessische Technische Hochschule Zurich, priority 2007, dated 2013).
